The test system of series [1] is pea rms4 mutant. It is filed as in vivo, Pisum sativum L. Here is the method:
The protocol used is in accordance with that described in example 4 above. Compound concentrations of 100 nM and 3 μM were tested. A negative control consisting of the solvent alone (<<CTL 0>>) was also tested.
The number of dead buds following the treatment with 3 μM of compound was also determined after 8 days of treatment (on groups of 48 plants).

Series [2] deals with Orobanche cumana. The experiment in a line: Germinative activity on parasitic plants. It is filed as in vivo. As to conditions: counted after 4 days. As for the experimental part: (§1) In this example, the germinative activity of the compounds in accordance with the invention (IIa) and (IIIb) and of the comparative compound GR24 was evaluated on the parasitic plants: Orobanche cumana, Orobanche minor, Striga hermonthica, Phelipanche ramosa (pv T and pv C).
(§2) The test protocol used was the following.
(§3) Seeds of Orobanche cumana Wallr. were collected from broomrapes parasitizing sunflower (Helianthus annuus L.), at Longeville-sur-mer, France, in 2009; seeds of clover broomrape (Orobanche minor Sm.) from a parasite of red clover (Trifolium pratense L.) were obtained from Professor K. Yoneyama (Utsunomiya University, Japan).
(§4) The seeds are stored dry in the dark at 25° C.
(§5) The compounds to be studied were resuspended in acetone at 10 mmol·l^−1, then diluted with water to 1 mmol·l^−1 (water/acetone; v/v; 99/1). Dilutions of 1×10^−3 mol·l^−1 to 1×10^−15 mol·l^−1 were then prepared in a water/acetone mixture (v/v; 99/1). Seeds of parasitic plants were surface-sterilized according to the protocol described in the publication by Vieira Dos Santos et al. (2003), then resuspended in sterile water (10 g·l^−1) and distributed on a 96-well plate (in a proportion of 50 μl, i.e. approximately 100 seeds per well). After preconditioning (7 days, 21° C., in the dark, plate hermetically sealed, except for the seeds of S. hermonthica, which were preconditioned at 30° C.), the compounds to be studied were added and the volumes adjusted to 100 μl with water (water/acetone; v/v; 999/1).
(§6) In a plate, a range of concentrations from 10^−13 mol·l^−1 to 10^−6 mol·l^−1 was applied for GR24 and (IIa) and from 10^−12 to 10^−5 mol·l^−1 for (IIIb). Controls were carried out with a water/acetone mixture (v/v; 999/1) and without seeds. The plates were incubated so as to allow germination (21° C., in the dark or 30° C. for Striga hermonthica.). After 4 days, the seeds which had germinated were counted under a stereomicroscope (SZX10, Olympus). The seeds were considered to have germinated when the radicle was sticking out of the seed tegument. Each germination test was repeated at least 3 times. For each compound tested, dose-response curves (g=f(c), where g is the germination percentage and c the concentration (mol·l^−1)), and the EC50 (median effective concentration) were modeled on the basis of a 4-parameter logistic curve calculated with SigmaPlot® 10.0.
(§7) The percentages of maximum germination induced by the compounds tested for each parasitic plant were determined.

Series [3] has as its system Orobanche minor. The experiment in a line: Germinative activity on parasitic plants. The format is in vivo. As to conditions: counted after 4 days. Here is the method: as §1, §2, §3, §4, §5, §6, §7
For series [4], the system named is Striga hermonthica. The experiment in a line: Germinative activity on parasitic plants. The format is in vivo. As to conditions: counted after 4 days, 30° C. Here is the method: as §1, §2
Seeds of Striga hermonthica (Del.) Benth were collected at Gadarif, Eastern Sudan, in 1999.
as §4, §5
as §6, with “The seeds were considered to have germinated when the radicle was sticking out of the seed tegument. Each germination test was repeated at least 3 times.” left out
as §7

For series [5], the system named is MRC5 cells. The experiment in a line: In vitro cytotoxicity study on MRC5 cells (MTS). It is filed as cell-based, human. As for the experimental part: The cytotoxicity of the compound (IIa) according to the invention, and that of GR24 and of GR5 as comparative compounds, was evaluated in vitro, at concentrations of 10^−4 M and 10^−5 M, on MRC5 cells, in DMSO, in the following way.
MRC5 cells (human lung (fibroblasts) were cultured in Dulbecco's modified Eagle medium (DMEM) supplemented with: 25 mM of glucose, 10% (v/v) of fetal calf serum, 100 IU of penicillin, 100 μg/ml of streptomycin and 1.5 μg/ml of fungizone, and kept under 5% of CO2 at 37° C.
96-well plates were seeded with 2100 MRC5 cells per well in 200 μl of medium. After 24 hours, each of the compounds dissolved in DMSO was added for 72 hours, at a final concentration of 10^−4 M or 10^−5 M in a fixed volume of DMSO. The controls received an equal volume of DMSO.
The viable cell number was measured at 490 nm with the MTS reagent (Promega), and, for each compound, the concentration causing 50% inhibition of cell growth, IC50, was calculated.

The subject of series [6] is Phelipanche ramosa pv C. The series is described as follows: Germinative activity on parasitic plants. As to conditions: counted after 4 days. The format is in vivo. As for the experimental part:
as §1, §2
(§8) Two populations of Phelipanche ramosa were used in this study, pathovar (pv) C and T, described in the publication by Benharrat et al. (2005). Seeds of Phelipanche ramosa pathovar C were collected at Saint Martin de Fraigneau, France, on broomrapes parasitizing winter oilseed rape (Brassica napus L.) in 2005 and seeds of Phelipanche ramosa pathovar T were collected in Sarthe, France, on broomrapes developing on hemp (Cannabis sativa L.) in 2007.
as §4, §5, §6, §7

Series [7] deals with Phelipanche ramosa pv T. The series is described as follows: Germinative activity on parasitic plants. As to conditions: counted after 4 days. It is filed as in vivo. Here is the method: as §1, §2, §8, §4, §5, §6, §7

On to `CC1=C(C)C(Sc2ccc(Cl)cc2)OC1=O` (stereo not shown) [Compound (IIa), 5-((4-chlorophenyl)thio)-3,4-dimethylfuran-2(5H)-one], for which the “length of bud/branch at node 3 (toxicity)” value in series [1] (100 nM and 3 μM, 8 days after treatment at node 3, FIG. 15) is “absence of effects of the compounds in accordance with the invention (IIa) and (IIIb) compared with a negative control, and between the two treatment doses”. For the same compound, the “number of dead buds after treatment” value in series [1] (3 μM, 8 days of treatment, groups of 48 plants, FIG. 16) was “no significant difference is notable regarding the number of dead buds following the treatment”. The “Percentage of maximum germination induced” value in series [2] was “no (no significant germination compared to the negative control (<2%))”; in series [3] it was “no (no significant germination compared to the negative control (<2%))”; in series [4] it was “no (no significant germination compared to the negative control (<2%))”; in series [6] it was 27 ± 4%; in series [7], 72 ± 2%. For the same compound, the inhibition (as a rule, how much of the control response was suppressed) at 100 µM in series [5] (Homo sapiens, MRC5, 10^−4M, 72 hours, ± standard error, read-out: Percentage inhibition of MRC5 cell growth) was 11 ± 5%. In addition, the inhibition at 10 µM in series [5] (Homo sapiens, MRC5, 10^−5M, 72 hours, ± standard error, read-out: Percentage inhibition of MRC5 cell growth) was found to be 7 ± 4%. Also, the “cytotoxicity compared with GR5 and GR24” value in series [5] (concentration of 10^−4 M) is “cytotoxicity which is much lower than that of the comparative compounds GR5 and GR24”.

The values above are taken from patent publication US9532569B2 (INSTITUT NATIONAL DE LA RECHERCHE AGRONOMIQUE, priority 2012, dated 2017).
